Results from US11800866B2, “Methods for control of pests” (Bio-Gene Technology Limited, priority 2018, dated 2023).
Values after ≈ are worked out from the molar mass of the structure shown. Where two headings read alike, the source gives them in different places.

Experiments:
Assay type in all cases: in vivo
[1] = system: Russian Wheat Aphid (Diuraphis noxia); test: leaf dip method on wheat leaf segments, Russian Wheat Aphid; details: for LC50: concentration giving 50% mortality, 95% CIs
Protocol: The efficacy of flavesone against Russian Wheat Aphid (Diuraphis noxia) was assessed using the leaf dip method described in Moores et al 1994 (Pesticide Biochemistry and Physiology, 49, 114-120), adapted for use with cereal aphids by using wheat leaf segments.
Serially diluted concentrations of flavesone (1 to 30000 mg/L) were tested at rates designed to include the expected field rate in cereals (Table 1), along with a control of water. Leaf segments (25 mm) cut from wheat (Triticum aestivum) plants were submerged for 1 second in the insecticide solutions or water (control), and placed adaxial side up on 10 g/L agar in 35 mm petri dishes. Once leaves were air-dry, eight 3-4 day old D. noxia nymphs were transferred to insecticide-dipped leaf segments using a fine-haired paintbrush. The population used was originally collected from Dingee (VIC) and maintained in the laboratory under a 18:6 LD cycle at 12-20° C. since June 2016.
The petri dishes were then inverted onto a lid containing a 25 mm diameter filter paper to control humidity, and were placed at 18° C.±2° C. with a photoperiod of 16:8 LD cycle. Six replicates were used for each concentration tested, and responses were assessed after 48 and 96 hours. Aphids were scored as alive (vibrant and moving freely), dead (not moving over a 5 second period), or incapacitated (inhibited movement).
Dose-response curves were generated by plotting percentage mortality against log concentration. Mortality data was analysed using a logistic regression model with random effects. Logistic regression is suited for the analysis of binary response data (i.e. dead/alive) with the random effect component of the model controlling for the non-independence of mortality scores within replicates. […] Analyses were conducted using R version 3.3.1 (R Development Core Team 2018, R: A language and environment for statistical computing. R Foundation for Statistical Computing, Vienna, Austria. http//www.R-project.org).

[2] = system: cotton aphid (Aphis gossypii); test: field trial, control of cotton aphid in cotton
Protocol: A field trial was conducted on a small plot of cotton in March 2018 to evaluate flavesone for the control of cotton aphid in cotton. The trial was conducted near Burren Junction in the Lower Namoi Valley Region of New South Wales, Australia. The trial was conducted in a crop grown as per standard commercial practice. It was precision planted on hills in rows 1 m apart and furrow flood irrigated. The crop was fully irrigated being watered as required over the duration of the season. The crop matured to produce good yield, typical of the region for the season. Light rainfall occurred at 6 and 7 days after treatment (DAT). The maximum temperature ranged from 28 to 38° C. and minimum temperature ranged from 14 to 23° C.
The plot was 4 m×8 m and four replicates were used. The plot was infested with cotton aphid at a moderate to high level with 36% of leaves infested pre-spray. The population on the untreated cotton increased over the duration of the trial with 83% leaves infested at 7 DAT.
The crop was either left untreated (control), treated with flavesone (Flavocide 500 EW) at varying concentrations or treated with Pirimor® (pirimicarb, positive control) as set out in Table 3:
The test solution was applied by broadcast method using a hand held boom sprayer with nozzles (Spraying Systems TT110015 flat fans) spaced 50 cm apart, with pressure being 250 kPa. Application speed was 1.5 m/s and the application volume was 105 L/ha.
The effectiveness of the application was evaluated on day 0 and 3 and 7 DAT. 20 leaves in the upper canopy of the plants in each plot were inspected and the number of aphids on each leaf recorded. The percentage of leaves infested and the mean number of aphids per leaf was then determined.
Statistical analyses were conducted using GenStat 64-bit Release 17.1 (PC/Windows Server 2008, VSN International Ltd). The model includes all treatment effects. Analysis of variance and least significant difference (LSD) procedures were used. Further means of separation was achieved by transforming the data using Square Root (x+0.5) or Log Base 10.

[3] = system: green peach aphid (Myzus persicae); test: leaf dip assay on Chinese cabbage leaves, green peach aphid
Protocol: The efficacy of flavesone against green peach aphid (Myzus persicae) was tested in a similar leaf dip assay as set out in Example 1, but used Chinese cabbage leaves, and 10 to 100,000 mg/L flavesone concentrations. The green peach aphids used were cultured in the laboratory from field collected insects.

CC(C)C(=O)C1C(=O)C(C)(C)C(=O)C(C)(C)C1=O [Flavesone, 1-isobutyroyl-3,3,5,5-tetramethylcyclohexan-2,4,6-trione]
toxicity to D. noxia ([1]; 1-30,000 mg a.i./L): toxic to D. noxia
LC50 ([1]; Diuraphis noxia, foliar, exposure time not given, read-out: LC50): 405 µg/mL (≈ 1610 µM)
mortality at 3000 µg/mL ([1]; Diuraphis noxia, foliar, 3,000 mg a.i./L, largest increase, read-out: increase of mortality between 48 and 96 hours): 58%
mortality at 30000 µg/mL ([1]; Diuraphis noxia, foliar, 30,000 mg a.i./L, 48 hours exposure): 100%
LC50 ([1]; exposure time not given): 405.4 mg a.i./L
LC90 ([1]; concentration giving 90% mortality, exposure time not given): 1.5 × 10^4 mg a.i./L
LC99 ([1]; concentration giving 99% mortality, exposure time not given): 8.1 × 10^5 mg a.i./L
concentration at which mortality began to increase ([1]; in vivo): 300 mg a.i./L
Mean Number of Cotton Aphid per leaf ([2]; 0.1% v/v, 0 DAT (pre-spray)): 1.5 ab
Mean Percentage of Leaves infested with cotton Aphid ([2]; 0.1% v/v, 0 DAT (pre-spray)): 34%
Mean Number of Cotton Aphid per leaf ([2]; 0.1% v/v, 3 DAT): 1.1 ab
Mean Percentage of Leaves infested with cotton Aphid ([2]; 0.1% v/v, 3 DAT): 15%
Mean Number of Cotton Aphid per leaf ([2]; 0.1% v/v, 7 DAT): 2.5 bc
Mean Percentage of Leaves infested with cotton Aphid ([2]; 0.1% v/v, 7 DAT): 43 c %
Mean Number of Cotton Aphid per leaf ([2]; 0.25% v/v, 0 DAT (pre-spray)): 2.6 b
Mean Percentage of Leaves infested with cotton Aphid ([2]; 0.25% v/v, 0 DAT (pre-spray)): 43%
Mean Number of Cotton Aphid per leaf ([2]; 0.25% v/v, 3 DAT): 2.1 ab
Mean Percentage of Leaves infested with cotton Aphid ([2]; 0.25% v/v, 3 DAT): 39%
Mean Number of Cotton Aphid per leaf ([2]; 0.25% v/v, 7 DAT): 3.1 c
Mean Percentage of Leaves infested with cotton Aphid ([2]; 0.25% v/v, 7 DAT): 38 bc %
Mean Number of Cotton Aphid per leaf ([2]; 0.50% v/v, 0 DAT (pre-spray)): 1.1 . . . ab
Mean Percentage of Leaves infested with cotton Aphid ([2]; 0.50% v/v, 0 DAT (pre-spray)): 30%
Mean Number of Cotton Aphid per leaf ([2]; 0.50% v/v, 3 DAT): 1.0 ab
Mean Percentage of Leaves infested with cotton Aphid ([2]; 0.50% v/v, 3 DAT): 19%
Mean Number of Cotton Aphid per leaf ([2]; 0.50% v/v, 7 DAT): 2.4 bc
Mean Percentage of Leaves infested with cotton Aphid ([2]; 0.50% v/v, 7 DAT): 40 c %
Mean Number of Cotton Aphid per leaf ([2]; 0.75% v/v, 0 DAT (pre-spray)): 1.4 ab
Mean Percentage of Leaves infested with cotton Aphid ([2]; 0.75% v/v, 0 DAT (pre-spray)): 33%
Mean Number of Cotton Aphid per leaf ([2]; 0.75% v/v, 3 DAT): 3.4 b
Mean Percentage of Leaves infested with cotton Aphid ([2]; 0.75% v/v, 3 DAT): 34%
Mean Number of Cotton Aphid per leaf ([2]; 0.75% v/v, 7 DAT): 2.7 bc
Mean Percentage of Leaves infested with cotton Aphid ([2]; 0.75% v/v, 7 DAT): 50 c %
Mean Number of Cotton Aphid per leaf ([2]; 1.00% v/v, 0 DAT (pre-spray)): 0.6 a
Mean Percentage of Leaves infested with cotton Aphid ([2]; 1.00% v/v, 0 DAT (pre-spray)): 26%
Mean Number of Cotton Aphid per leaf ([2]; 1.00% v/v, 3 DAT): 0.2 a
Mean Percentage of Leaves infested with cotton Aphid ([2]; 1.00% v/v, 3 DAT): 9%
Mean Number of Cotton Aphid per leaf ([2]; 1.00% v/v, 7 DAT): 1.0 ab
Mean Percentage of Leaves infested with cotton Aphid ([2]; 1.00% v/v, 7 DAT): 19 b %
control of cotton aphid ([2]; highest 1% v/v rate): slightly better control
toxicity to green peach aphid ([3]; 10 to 100,000 mg/L): toxic to green peach aphid
concentration at which mortality responses began to increase ([3]; 48 hours): 1000 mg/L
concentration at which mortality increased ([3]; 96 hours): 1000 mg/L
mortality at 10000 µg/mL ([3]; Myzus persicae, foliar, 10,000 mg/L, 96 hours): 100%
mortality at 30000 µg/mL ([3]; Myzus persicae, foliar, 30,000 mg/L, 48 hours exposure): 100%
